Data taken from ChEMBL document CHEMBL1157136, “Design and synthesis of cyclic disulfide-bonded antibacterial peptides on the basis of the alpha helical domain of Tenecin 1, an insect defensin” (Bioorg Med Chem, 2008).
Values after ≈ are worked out from the molar mass of the structure shown. Where a SMILES comes first, the peptide text is derived from it. Bridges are numbered along the chain shown (N, C = ends).

Assays:
[1] = system: Pseudomonas aeruginosa; assay: Antimicrobial activity against Pseudomonas aeruginosa after 24 hrs by microdilution technique in high salt condition; type: functional
[2] = system: Pseudomonas aeruginosa; assay: Antimicrobial activity against Pseudomonas aeruginosa after 24 hrs by microdilution technique in absence of NaCl; type: functional
[3] = system: Micrococcus luteus; assay: Antimicrobial activity against Micrococcus luteus after 24 hrs by microdilution technique in high salt condition; type: functional
[4] = system: Staphylococcus aureus; assay: Antimicrobial activity against Staphylococcus aureus after 24 hrs by microdilution technique in high salt condition; type: functional
[5] = system: Micrococcus luteus; assay: Antimicrobial activity against Micrococcus luteus after 24 hrs by microdilution technique in absence of NaCl; type: functional
[6] = system: Staphylococcus aureus; assay: Antimicrobial activity against Staphylococcus aureus after 24 hrs by microdilution technique in absence of NaCl; type: functional
[7] = system: Candida albicans; assay: Antimicrobial activity against Candida albicans after 24 hrs by microdilution technique in high salt condition; type: functional
[8] = system: Erythrocyte; assay: Hemolytic activity in human red blood cells after 1 hrs; type: functional
[9] = system: Escherichia coli; assay: Antimicrobial activity against Escherichia coli after 24 hrs by microdilution technique in high salt condition; type: functional
[10] = system: Escherichia coli; assay: Antimicrobial activity against Escherichia coli after 24 hrs by microdilution technique in absence of NaCl; type: functional
[11] = Effect on leakage from large unilamellar vesicles containing phosphatidylglycerol/phosphatidyl choline assessed as release of entrapped dye at 50 uM; type: physicochemical
[12] = system: Candida albicans; assay: Antimicrobial activity against Candida albicans after 24 hrs by microdilution technique in absence of NaCl; type: functional

Row | Compound | MIC [1] [µg/mL] | MIC [2] [µg/mL] | MIC [3] [µg/mL] | MIC [4] [µg/mL] | MIC [5] [µg/mL] | MIC [6] [µg/mL] | MIC [7] [µg/mL] | HC50 [8] [µg/mL] | MIC [9] [µg/mL] | MIC [10] [µg/mL] | Activity [11] [%] | MIC [12] [µg/mL]
1 | CC(C)C[C@H](NC(=O)[C@@H]1CSSC[C@H](NC(=O)[C@H](C)NC(=O)[C@H](C)NC(=O)[C@@H](N)CC(=O)O)C(=O)N[C@@H](C)C(=O)N[C@@H](C)C(=O)N[C@@H](CCCCN)C(=O)N1)C(=O)N[C@@H](Cc1c[nH]c2ccccc12)C(=O)N[C@@H](CCCNC(=N)N)C(N)=O (H-DAACAAKCLWR-NH2; disulfide 4-8) | > 200 | > 200 | > 200 | > 200 | > 200 | > 200 | > 200 | >200 | > 200 | > 200 | – | –
2 | CC(C)C[C@H](NC(=O)[C@@H]1CSSC[C@H](NC(=O)[C@H](C)NC(=O)[C@H](C)NC(=O)[C@@H](N)CCCCN)C(=O)N[C@@H](C)C(=O)N[C@@H](C)C(=O)N[C@@H](CCCCN)C(=O)N1)C(=O)N[C@@H](Cc1c[nH]c2ccccc12)C(=O)N[C@@H](CCCNC(=N)N)C(N)=O (H-KAACAAKCLWR-NH2; disulfide 4-8) | > 200 | > 200 | 200 | > 200 | 50 (≈ 41.1 µM) | 50 (≈ 41.1 µM) | > 200 | >200 | 200 | 50 (≈ 41.1 µM) | – | –
3 | CC(C)C[C@H](NC(=O)[C@H](CS)NC(=O)[C@H](Cc1cnc[nH]1)NC(=O)[C@H](C)NC(=O)[C@H](C)NC(=O)[C@H](CS)NC(=O)[C@H](C)NC(=O)[C@H](C)NC(=O)[C@@H](N)CCCCN)C(=O)N[C@@H](Cc1c[nH]c2ccccc12)C(=O)N[C@@H](CCCNC(=N)N)C(N)=O (H-KAACAAHCLWR-NH2) [listing 1 of 2 here] | > 200 | 100 | > 200 | > 200 | 25 | 50 | > 200 | >200 | > 200 | 50 | – | –
4 | CC(C)C[C@H](NC(=O)[C@H](CS)NC(=O)[C@H](CCCCN)NC(=O)[C@H](C)NC(=O)[C@H](C)NC(=O)[C@H](CS)NC(=O)[C@H](C)NC(=O)[C@H](C)NC(=O)[C@@H](N)CC(=O)O)C(=O)N[C@@H](Cc1c[nH]c2ccccc12)C(=O)N[C@@H](CCCNC(=N)N)C(N)=O (H-DAACAAKCLWR-NH2) | > 200 | > 200 | > 200 | > 200 | 200 (≈ 166 µM) | 200 (≈ 166 µM) | > 200 | >200 | > 200 | 200 (≈ 166 µM) | – | –
5 | CC(C)C[C@H](NC(=O)[C@H](CS)NC(=O)[C@H](Cc1cnc[nH]1)NC(=O)[C@H](C)NC(=O)[C@H](C)NC(=O)[C@H](CS)NC(=O)[C@H](C)NC(=O)[C@H](C)NC(=O)[C@@H](N)CCCCN)C(=O)N[C@@H](Cc1c[nH]c2ccccc12)C(=O)N[C@@H](CCCNC(=N)N)C(N)=O (H-KAACAAHCLWR-NH2) [listing 2 of 2 here] | – | – | – | – | – | – | – | – | – | – | 70 | –
6 | CC(C)C[C@H](NC(=O)[C@H](CS)NC(=O)[C@H](CCCCN)NC(=O)[C@H](C)NC(=O)[C@H](C)NC(=O)[C@H](CS)NC(=O)[C@H](C)NC(=O)[C@H](C)NC(=O)[C@@H](N)CCCCN)C(=O)N[C@@H](Cc1c[nH]c2ccccc12)C(=O)N[C@@H](CCCNC(=N)N)C(N)=O (H-KAACAAKCLWR-NH2) | > 200 | 100 (≈ 82 µM) | 200 | 100 | 25 (≈ 20.5 µM) | 50 (≈ 41 µM) | > 200 | >200 | > 200 | 50 (≈ 41 µM) | – | –
7 | CC(C)C[C@H](NC(=O)[C@@H]1CSSC[C@H](NC(=O)[C@H](C)NC(=O)[C@H](C)NC(=O)[C@@H](N)CCCCN)C(=O)N[C@@H](C)C(=O)N[C@@H](C)C(=O)N[C@@H](Cc2cnc[nH]2)C(=O)N1)C(=O)N[C@@H](Cc1c[nH]c2ccccc12)C(=O)N[C@@H](CCCNC(=N)N)C(N)=O (H-KAACAAHCLWR-NH2; disulfide 4-8) | > 200 | > 200 | 100 | 100 | 100 | 100 | > 200 | >200 | > 200 | > 200 | 20 | –
8 | CC(C)C[C@H](NC(=O)[C@@H]1CSSC[C@H](NC(=O)[C@H](C)NC(=O)[C@H](C)NC(=O)[C@@H](N)CC(=O)O)C(=O)N[C@@H](C)C(=O)N[C@@H](C)C(=O)N[C@@H](Cc2cnc[nH]2)C(=O)N1)C(=O)N[C@@H](Cc1c[nH]c2ccccc12)C(=O)N[C@@H](CCCNC(=N)N)C(N)=O (H-DAACAAHCLWR-NH2; disulfide 4-8) | > 200 | > 200 | > 200 | > 200 | > 200 | > 200 | > 200 | >200 | > 200 | > 200 | – | –
9 | CC(C)C[C@H](NC(=O)[C@H](CS)NC(=O)[C@H](Cc1cnc[nH]1)NC(=O)[C@H](C)NC(=O)[C@H](C)NC(=O)[C@H](CS)NC(=O)[C@H](C)NC(=O)[C@H](C)NC(=O)[C@@H](N)CC(=O)O)C(=O)N[C@@H](Cc1c[nH]c2ccccc12)C(=O)N[C@@H](CCCNC(=N)N)C(N)=O (H-DAACAAHCLWR-NH2) | > 200 | > 200 | > 200 | > 200 | > 200 | > 200 | > 200 | >200 | > 200 | > 200 | – | > 200
